{"source": "patent US20230277632A1", "about": "“MODIFIED PlySs2 LYSINS AND ANTIBIOTIC COMBINATIONS FOR USE AGAINST GRAM-POSITIVE BACTERIA” (ContraFect Corporation, priority 2020, published 2023)", "key": {"S. aureus isolates [1]": {"test_system": "S. aureus isolates", "experiment": "MIC determination (broth microdilution) against 8 S. aureus isolates", "assay_type": "cell-based", "conditions": "CAMHB, unit assumed", "protocol": "Suitable methods for assessing the activity of a modified lysin polypeptide as disclosed herein are well known in the art and described in the examples. […] For example, MIC values for a modified lysin polypeptide may be determined against e.g., laboratory Staphylococcus aureus strains, in e.g., Mueller-Hinton broth or Mueller-Hinton broth supplemented with serum, such as horse serum.\nThe pp296 MICs were determined based on (1) cation-adjusted Mueller-Hinton Broth with 25% horse serum and 0.5 mM DTT (caMHB-HSD); (2) human serum (100% serum); and (3) ICR mice (100% serum). Vancomycin and daptomycin MICs of the isolate strains were determined in accordance with the broth microdilution method as outlined by CLSI. Results of the MIC determination are shown below in Table 2. The bacterial isolates were frozen at −80° C. in skim milk."}, "S. aureus isolates [2]": {"test_system": "S. aureus isolates", "experiment": "Vancomycin dose-ranging, neutropenic murine thigh infection model", "assay_type": "in vivo", "conditions": "24 h", "protocol": "(§1) Study animals: Specific pathogen-free female ICR mice (average body weight 23 grams) were provided food and water ad libitum and maintained and used in accordance with National Research Council recommendations. Animals were allowed a 48-hour post-delivery acclimation period before every experiment. Mice were rendered transiently neutropenic by injection of cyclophosphamide via intraperitoneal (IP) route at a dose of 150 mg/kg of body weight at four days before bacterial inoculation and 100 mg/kg of body weight at one day before bacterial inoculation.\n(§2) Neutropenic Thigh Infection Model: Two transfers of the bacterial isolates were performed onto trypticase soy agar plates with 5% sheep blood and placed into an incubator at 37° C. for approximately 24 hours. After an 18-24 hour incubation of the second transfer, a suspension of approximately 10^7 CFU/mL was made for inoculation. Final bacterial inoculum concentrations were confirmed by serial dilution and plating techniques. Thigh infection with the test isolate was produced by intramuscular injection of 0.1 mL of the bacterial inoculum into each thigh of the mice. […]\nTwo hours post-bacterial inoculation, one group of mice (n=3) was sacrificed to serve as a 0 hour control, representing initial bacterial burden in the thigh, wherein bacterial burden is determined as the average CFU from 6 thighs, i.e., 2 thighs per mouse. […]"}, "S. aureus isolates [3]": {"test_system": "S. aureus isolates", "experiment": "In vivo efficacy of vancomycin in combination with pp296, neutropenic murine thigh infection model", "conditions": "24 h; for Replicate Log10 CFU/thigh data: listed as VAN", "protocol": "as §1\nas §2, with “mice. Antimicrobial therapy was initiated 2 hours after bacterial inoculation, as detailed below.” for “mice.”\nUntreated control mice (n=3) were sacrificed just prior to antibiotic administration and 24 hours after bacterial inoculation. Animals sacrificed prior to antibiotic initiation served as 0-hour control animals, representing initial bacterial burden. […] Treatment mice (n=3/group) were sacrificed at the end of the 24 hour treatment period. After sacrifice, both thighs for each mouse were homogenized in normal saline. Serial dilutions were plated on Trypticase soy agar with 5% sheep blood and incubated for 18 to 20 hours at 37.0 to determine the CFU. Efficacy was calculated as the change in bacterial density obtained in treated mice after 24 hours compared with the numbers in the 0-hour control animals. Bacterial density represents the average CFU determined from 3 mice, each contributing 2 thighs."}, "S. aureus": {"test_system": "S. aureus", "experiment": "pp296 dose fractionation study, neutropenic murine thigh infection model", "assay_type": "in vivo", "conditions": "vancomycin 3 mg/kg Q12h SC alone, 24 h", "protocol": "Each of the pp296 TDDs was fractionated into three regimens, i.e., one-third of the entire dose was administered via IV three times (q8h); one-half of the entire does was administered via IV two times (q12h), or the entire dose was administered via IV once daily over a 24-hour period, for a total of three groups per each TDD.\nUntreated control mice (n=3/group) were sacrificed just prior to antibiotic administration, as well as 24 hours later. Animals sacrificed prior to antibiotic administration served as 0-hour control animals, representing initial bacterial burden. The 24-hour control animals received sterile normal saline in the same volume and schedule as the most frequent active drug regimen. […] After the 24-hour treatment period, all animals were euthanized and thighs were cultured quantitatively as described above. The change in bacterial density was calculated for each of the dosing regimen. Comparisons were made between the different regimens of the same total daily dose on bacterial burdens at 24 hours using one-way Analysis of Variance (ANOVA) test followed by Tukey's test where the P value was 0.05."}}, "note": "Several values for one entry are separate records, joined by “and”; a condition that tells them apart may be missing. Identical values can stand only once.", "data": [{"smiles": "CN[C@H](CC(C)C)C(=O)N[C@H]1C(=O)N[C@@H](CC(N)=O)C(=O)N[C@H]2C(=O)N[C@H]3C(=O)N[C@H](C(=O)N[C@H](C(=O)O)c4cc(O)cc(O)c4-c4cc3ccc4O)[C@H](O)c3ccc(c(Cl)c3)Oc3cc2cc(c3O[C@@H]2O[C@H](CO)[C@@H](O)[C@H](O)[C@H]2O[C@H]2C[C@](C)(N)[C@H](O)[C@H](C)O2)Oc2ccc(cc2Cl)[C@H]1O", "note": "[Vancomycin, vancomycin]", "values": [{"measurement": "MIC Vancomycin (CAMHB)", "setting": "S. aureus isolates [1]; ATCC 29213 MSSA", "value": 1, "unit": "µg/mL"}, {"measurement": "MIC Vancomycin (CAMHB)", "setting": "S. aureus isolates [1]; CAIRD426 MRSA", "value": 1, "unit": "µg/mL"}, {"measurement": "MIC Vancomycin (CAMHB)", "setting": "S. aureus isolates [1]; HPV107 MRSA", "value": 1, "unit": "µg/mL"}, {"measurement": "MIC Vancomycin (CAMHB)", "setting": "S. aureus isolates [1]; JMI227 MRSA", "value": 1, "unit": "µg/mL"}, {"measurement": "MIC Vancomycin (CAMHB)", "setting": "S. aureus isolates [1]; JMI4789 MRSA", "value": 1, "unit": "µg/mL"}, {"measurement": "MIC Vancomycin (CAMHB)", "setting": "S. aureus isolates [1]; NRS100 (COL) MRSA", "value": 1, "unit": "µg/mL"}, {"measurement": "MIC Vancomycin (CAMHB)", "setting": "S. aureus isolates [1]; NRS123 (MW2) MRSA", "value": 1, "unit": "µg/mL"}, {"measurement": "MIC Vancomycin (CAMHB)", "setting": "S. aureus isolates [1]; NRS271 MRSA/LRSA", "value": 1, "unit": "µg/mL"}, {"measurement": "bacterial burden reduction vs 0-hour controls", "setting": "S. aureus isolates [2]; upper end of dose-response, vancomycin 3.125-25 mg/kg q12h SC, all isolates", "value": "−1.15±0.40", "unit": "log10 CFU/thigh"}, {"measurement": "mean bacterial burden change vs 0-hour controls", "setting": "S. aureus isolates [2]; vancomycin 3.125 mg/kg q12h SC, mean of 8 isolates", "value": "−0.05±1.16", "unit": "log10 CFU/thigh"}, {"measurement": "Replicate Log10 CFU/thigh data", "setting": "S. aureus isolates [3]; ATCC2921, VAN 3 mg/kg alone", "value": "4.59 Log10 CFU/thigh and 4.96 Log10 CFU/thigh and 7.87 Log10 CFU/thigh and 5.18 Log10 CFU/thigh and 7.18 Log10 CFU/thigh and 6.03 Log10 CFU/thigh"}, {"measurement": "Replicate Log10 CFU/thigh data", "setting": "S. aureus isolates [3]; CAIRD426, VAN 1.5 mg/kg alone", "value": "6.89 Log10 CFU/thigh and 6.51 Log10 CFU/thigh and 7.97 Log10 CFU/thigh and 8.04 Log10 CFU/thigh"}, {"measurement": "Replicate Log10 CFU/thigh data", "setting": "S. aureus isolates [3]; CAIRD426, VAN 3 mg/kg alone, Run #1", "value": "4.81 Log10 CFU/thigh and 7.53 Log10 CFU/thigh and 6.53 Log10 CFU/thigh"}, {"measurement": "Replicate Log10 CFU/thigh data", "setting": "S. aureus isolates [3]; CAIRD426, VAN 3 mg/kg alone, Run #2", "value": "7.82 Log10 CFU/thigh and 8.21 Log10 CFU/thigh and 7.74 Log10 CFU/thigh and 7.40 Log10 CFU/thigh and 7.47 Log10 CFU/thigh and 7.20 Log10 CFU/thigh"}, {"measurement": "Replicate Log10 CFU/thigh data", "setting": "S. aureus isolates [3]; HPV107, VAN 1.5 mg/kg alone", "value": "8.44 Log10 CFU/thigh and 8.20 Log10 CFU/thigh and 8.00 Log10 CFU/thigh and 7.87 Log10 CFU/thigh and 8.32 Log10 CFU/thigh"}, {"measurement": "Replicate Log10 CFU/thigh data", "setting": "S. aureus isolates [3]; HPV107, VAN 3 mg/kg alone, Run #1", "value": "7.50 Log10 CFU/thigh and 7.81 Log10 CFU/thigh and 7.24 Log10 CFU/thigh and 7.40 Log10 CFU/thigh and 7.36 Log10 CFU/thigh and 6.51 Log10 CFU/thigh"}, {"measurement": "Replicate Log10 CFU/thigh data", "setting": "S. aureus isolates [3]; HPV107, VAN 3 mg/kg alone, Run #2", "value": "7.49 Log10 CFU/thigh and 7.73 Log10 CFU/thigh and 5.45 Log10 CFU/thigh"}, {"measurement": "Replicate Log10 CFU/thigh data", "setting": "S. aureus isolates [3]; JMI227, VAN 3 mg/kg alone", "value": "7.50 Log10 CFU/thigh and 6.17 Log10 CFU/thigh and 8.04 Log10 CFU/thigh and 8.21 Log10 CFU/thigh and 8.47 Log10 CFU/thigh and 7.51 Log10 CFU/thigh"}, {"measurement": "Replicate Log10 CFU/thigh data", "setting": "S. aureus isolates [3]; JMI4789, VAN 3 mg/kg alone", "value": "8.41 Log10 CFU/thigh and 8.01 Log10 CFU/thigh and 6.93 Log10 CFU/thigh (2×) and 4.92 Log10 CFU/thigh"}, {"measurement": "Replicate Log10 CFU/thigh data", "setting": "S. aureus isolates [3]; NRS100, VAN 1.5 mg/kg alone", "value": "6.30 Log10 CFU/thigh and 4.89 Log10 CFU/thigh and 4.85 Log10 CFU/thigh and 4.30 Log10 CFU/thigh and 4.69 Log10 CFU/thigh and 6.73 Log10 CFU/thigh"}, {"measurement": "Replicate Log10 CFU/thigh data", "setting": "S. aureus isolates [3]; NRS100, VAN 3 mg/kg alone, Run #1", "value": "4.58 Log10 CFU/thigh (2×) and 4.90 Log10 CFU/thigh and 4.89 Log10 CFU/thigh and 4.48 Log10 CFU/thigh and 4.56 Log10 CFU/thigh"}, {"measurement": "Replicate Log10 CFU/thigh data", "setting": "S. aureus isolates [3]; NRS100, VAN 3 mg/kg alone, Run #2", "value": "4.75 Log10 CFU/thigh and 6.89 Log10 CFU/thigh and 4.70 Log10 CFU/thigh and 4.58 Log10 CFU/thigh and 4.83 Log10 CFU/thigh and 6.46 Log10 CFU/thigh"}, {"measurement": "Replicate Log10 CFU/thigh data", "setting": "S. aureus isolates [3]; NRS123, VAN 3 mg/kg alone", "value": "7.17 Log10 CFU/thigh and 7.02 Log10 CFU/thigh and 7.77 Log10 CFU/thigh and 8.38 Log10 CFU/thigh and 8.32 Log10 CFU/thigh and 8.01 Log10 CFU/thigh"}, {"measurement": "Replicate Log10 CFU/thigh data", "setting": "S. aureus isolates [3]; NRS217, VAN 1.5 mg/kg alone", "value": "7.60 Log10 CFU/thigh and 8.28 Log10 CFU/thigh and 8.26 Log10 CFU/thigh and 7.90 Log10 CFU/thigh and 6.43 Log10 CFU/thigh and 7.61 Log10 CFU/thigh"}, {"measurement": "Replicate Log10 CFU/thigh data", "setting": "S. aureus isolates [3]; NRS217, VAN 3 mg/kg alone, Run #1", "value": "6.66 Log10 CFU/thigh and 6.70 Log10 CFU/thigh and 7.23 Log10 CFU/thigh and 6.68 Log10 CFU/thigh and 7.60 Log10 CFU/thigh and 6.55 Log10 CFU/thigh"}, {"measurement": "Replicate Log10 CFU/thigh data", "setting": "S. aureus isolates [3]; NRS217, VAN 3 mg/kg alone, Run #2", "value": "7.06 Log10 CFU/thigh and 7.38 Log10 CFU/thigh and 5.26 Log10 CFU/thigh and 4.73 Log10 CFU/thigh and 6.82 Log10 CFU/thigh"}, {"measurement": "Replicate Log10 CFU/thigh data", "setting": "S. aureus isolates [3]; isolate HPV107, VAN 5 mg/kg q12h SC alone", "value": "4.73 Log10 CFU/thigh and 8.28 Log10 CFU/thigh and 4.75 Log10 CFU/thigh and 4.88 Log10 CFU/thigh"}, {"measurement": "Replicate Log10 CFU/thigh data", "setting": "S. aureus isolates [3]; isolate NRS100, VAN 5 mg/kg q12h SC alone", "value": "4.68 Log10 CFU/thigh (2×) and 4.78 Log10 CFU/thigh (2×) and 4.56 Log10 CFU/thigh and 4.73 Log10 CFU/thigh"}, {"measurement": "Replicate Log10 CFU/thigh data", "setting": "S. aureus isolates [3]; isolate NRS217, VAN 5 mg/kg q12h SC alone", "value": "4.64 Log10 CFU/thigh and 6.13 Log10 CFU/thigh and 4.76 Log10 CFU/thigh and 4.56 Log10 CFU/thigh and 4.75 Log10 CFU/thigh"}, {"measurement": "average bacterial growth vs starting inoculum", "setting": "S. aureus isolates [3]; vancomycin 1.5 mg/kg Q12h SC alone, 4 isolates", "value": "2.75±0.52", "unit": "log10 CFU/thigh"}, {"measurement": "average bacterial reduction vs starting inoculum", "setting": "S. aureus isolates [3]; vancomycin 5 mg/kg q12h SC alone, 4 isolates", "value": "−0.38±1.10", "unit": "log10 CFU/thigh"}, {"measurement": "bacterial burden vs 0-hour control mice", "setting": "S. aureus", "value": "0.41±0.62", "unit": "log10 CFU/thigh"}]}]}
